In patent US5061495A, “Antibiotic derived from B. subtilis” (Agricultural Genetics Company Limited, priority 1988, dated 1991):
Where two headings read alike, the source gives them in different places.

Columns and labels:
[1] = cited from earlier work
[2] = cited from earlier work; remark: listed apart in the source
[3] = tested on: wheat powdery mildew (Erysiphe graminis); assay: Control of wheat powdery mildew by formulated culture broths; type: in vivo; settings: 14 days
Experimental: B.subtilis NCIB 12376 was grown in a yeast peptone-glucose broth at 30° C. in an orbital shaker for 72 hours. The formulants listed in Table 9 were added to samples of culture broths at the concentrations given in Table 9 and stirred until dispersed or dissolved. The formulated broths were tested for control of wheat powdery mildew (Erysiphe graminis) by spraying to run-off wheat plants (cv. Aquila) at the two leaf stage (Zadocks GS 12) prior to inoculation with an aqueous suspension of E. graminis conidia. For each formulation 20 replicate pots of plants were sprayed. Ten pots from each treatment were then thoroughly drenched with a mist bench for 4 minutes, one hour after spraying. All pots were incubated in a glasshouse for 14 days before assessment of disease levels (Table 9).

Iturin A
Thermostability ([1]; pH 3, 14 and 23): thermostable | Thermostability ([1]; pH 10, 14 and 23): thermostable

Chaetomacin
Solubility in acetone ([2]; literature): soluble

Fungistatin
Behaviour on contact with water ([2]; water): forms an inactive gel when contacted with water

Mycosubtilin
Solubility in butanol ([2]; literature): insoluble | Solubility in ethanol ([2]; literature): insoluble | Solubility in methanol ([2]; methanol, literature): insoluble

CC(C)(C)C(=O)C(Oc1ccc(Cl)cc1)n1cncn1 (centres unmarked) [Triadimefon]
Disease Level (% leaf area infected) ([3]; drenched 4 minutes, one hour after spraying, no treatment 5.6): 0.1% | Disease Level (% leaf area infected) ([3]; undrenched, no treatment 2.0): 0.2%

Mycobacillin
Solubility in acetone ([2]; literature): soluble | Solubility in water ([2]; pH values of 7 and below, refs. 20 and 22): insoluble

Rhizoctonia factor
Thermostability ([1]; pH 2 only, refs. 5 and 9): thermostable only at pH 2 | Solubility in butanol ([2]; literature): insoluble | Solubility in ethanol ([2]; literature): insoluble

Bacillomycin L
Thermostability ([1]; pH 3, 14 and 23): thermostable | Thermostability ([1]; pH 10, 14 and 23): thermostable | Partition into butanol ([2]; neutral pH): does not partition into butanol
